# Measurements from patent US20260200943A1, “COMPOUNDS FOR TREATING CANCER” (Genesis Therapeutics, Inc., priority 2022, published 2026).
# Experiments:
# Format in all cases: biochemical
# CDK9/CyclinT1 [1] = molecular target: T1, CDK9/CyclinT1 (Homo sapiens, UniProt P50750); assay: CDK9/CyclinT1 Mobility Shift Assay (Caliper, Table B); parameters: Wild-type, full length CDK9 in complex with wildtype, CyclinT1 (1-259): Biortus Cat #BP480/792/691; purchased Biortus BP480/792/691; conditions: read-out: CDK9/Cyclin T1 Caliper Ki: Average Ki
# Experimental: 10 nL of 2000× compound in 100% DMSO is added to a 384-well polypropylene assay plate. 15 μL of 1.3×CDK9/T1 and 1.3× fluorescent substrate (Wild-type, full length CDK9 in complex with wildtype, CyclinT1 (1-259): Biortus Cat #BP480/792/691 and FL-Peptide 34: PerkinElmer Cat #760643) diluted in kinase buffer (50 mM Hepes, 0.01% Brij-35, 10 mM MgCl2, 1 mM EGTA, 0.05% BSA, and 2 mM DTT) is added to the plates on top of the compound, mixed, and pre-incubated for 30 minutes at room temperature. The fluorescently labeled peptide substrate is phosphorylated by CDK9/T1 upon ATP hydrolysis. Following the incubation, 5 μL of 4×ATP diluted in kinase buffer is added to the plate to initiate the reaction. Following the 30-minute incubation, the reaction is stopped by adding 75 μL of stopping buffer containing 0.5 M EDTA.
# (§1) The assay plate is then read on a Lab Chip EZ Reader which separates the fluorescently labeled substrate and product peptides through a mobility difference. The phosphorylation of the substrate imparts a negative charge, which allows differences in separation as both are pulled through the microfluidic chip. The ratio of substrate and product values are used to generate percent conversion. These raw percent conversion values are normalized to calculate percent inhibition, which are fit to a four-parameter logistic curve and IC50 values are calculated. IC50 values are converted to Ki using substrate, Kmapp values, and the Cheng-Prusoff equation.
# Target sequence in this assay (P50750 whole entry): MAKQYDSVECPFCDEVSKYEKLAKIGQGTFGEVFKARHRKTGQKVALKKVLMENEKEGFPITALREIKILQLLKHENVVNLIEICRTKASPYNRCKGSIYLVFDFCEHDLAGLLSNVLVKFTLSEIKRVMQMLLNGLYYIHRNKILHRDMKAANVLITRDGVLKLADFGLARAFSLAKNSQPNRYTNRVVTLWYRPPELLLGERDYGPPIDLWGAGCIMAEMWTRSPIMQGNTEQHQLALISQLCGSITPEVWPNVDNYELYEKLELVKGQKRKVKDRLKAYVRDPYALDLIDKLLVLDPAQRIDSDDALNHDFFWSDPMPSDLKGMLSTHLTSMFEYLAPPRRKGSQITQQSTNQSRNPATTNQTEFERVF
# Target sequence in this assay (O60563 1-259 partner limits assumed): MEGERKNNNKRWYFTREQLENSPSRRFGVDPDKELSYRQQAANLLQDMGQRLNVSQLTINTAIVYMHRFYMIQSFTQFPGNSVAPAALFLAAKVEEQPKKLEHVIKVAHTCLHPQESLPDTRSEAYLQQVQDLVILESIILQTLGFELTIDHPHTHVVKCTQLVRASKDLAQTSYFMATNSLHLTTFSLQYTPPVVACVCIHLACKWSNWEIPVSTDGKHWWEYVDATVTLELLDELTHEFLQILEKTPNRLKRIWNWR
# CDK9/CyclinT1 [2] = molecular target: T1, CDK9/CyclinT1; assay: CDK9/CyclinT1 ChEF Assay (Table A); parameters: Wild-type, full length CDK9 in complex with wildtype, full length CyclinT1: Invitrogen Cat #PV4131; purchased Invitrogen PV4131; conditions: 10xKm, read-out: CDK9/CCNT1 ChEF 10xKm Ki: Average Ki
# Experimental: 500 nL of 50× compound in 100% DMSO is added to a 384-well low volume, white assay plate. 19.5 μL of 1.3×CDK9/CyclinT1 (Wild-type, full length CDK9 in complex with wildtype, full length CyclinT1: Invitrogen Cat #PV4131) diluted in assay buffer (50 mM Hepes, 0.01% Brij-35, 10 mM MgCl2, 0.5 mM EGTA, 1% Glycerol, and 1.2 mM DTT) is added to the plates on top of the compound and pre-incubated for 30 minutes at room temperature. Following the incubation, 5 μL of 5×Sox-chromophore (CSox) labeled peptide substrate (AQT0449, AssayQuant) & ATP diluted in assay buffer is added to the plate to initiate the reaction. The assay is incubated at room temperature for 120 min after initiation. The CSox peptide substrate is phosphorylated by CDK9/T1 upon ATP hydrolysis.
# (§2) The fluorescent intensity measurement of the assay plate for all assays described above is read on a microplate reader once the assay is initiated and again at the completion of the assay. Phosphorylation of the CSox-based peptide substrate sensor results in an immediate increase in fluorescence. These raw fluorescence intensity values are normalized to calculate percent inhibition, which are fit to a four-parameter logistic curve and IC50 values are calculated. IC50 values are converted to Ki using substrate, KM^app values, and the Cheng-Prusoff equation.
# Target sequence in this assay (P50750 whole entry): as the sequence (P50750 whole entry) above
# Target sequence in this assay (O60563 whole entry partner): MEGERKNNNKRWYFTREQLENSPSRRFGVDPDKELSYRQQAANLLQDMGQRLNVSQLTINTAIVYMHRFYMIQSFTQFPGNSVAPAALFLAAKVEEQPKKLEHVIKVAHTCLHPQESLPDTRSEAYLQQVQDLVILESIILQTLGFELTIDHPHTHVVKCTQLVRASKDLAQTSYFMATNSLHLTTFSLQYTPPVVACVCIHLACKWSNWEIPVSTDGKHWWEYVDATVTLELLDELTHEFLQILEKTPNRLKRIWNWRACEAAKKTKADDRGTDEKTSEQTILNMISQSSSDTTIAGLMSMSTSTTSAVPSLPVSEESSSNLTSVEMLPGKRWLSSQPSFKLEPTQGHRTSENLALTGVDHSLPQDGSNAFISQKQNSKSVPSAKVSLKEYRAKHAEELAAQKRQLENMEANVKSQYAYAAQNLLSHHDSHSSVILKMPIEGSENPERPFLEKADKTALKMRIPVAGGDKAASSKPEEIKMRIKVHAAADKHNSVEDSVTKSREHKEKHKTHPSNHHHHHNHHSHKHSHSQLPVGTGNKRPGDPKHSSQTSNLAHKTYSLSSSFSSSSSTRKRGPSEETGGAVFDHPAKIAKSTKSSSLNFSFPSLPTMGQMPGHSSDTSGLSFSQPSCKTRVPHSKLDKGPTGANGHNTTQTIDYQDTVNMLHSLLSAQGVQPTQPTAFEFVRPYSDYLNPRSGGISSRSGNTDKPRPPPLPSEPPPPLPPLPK
# CDK2/CyclinA2 = molecular target: T2, CDK2/CyclinA2 (Homo sapiens, UniProt P24941); assay: CDK2/CyclinA2 ChEF Assay (Table A); conditions: for Ki: 10xKm, read-out: CDK2/CCNA2 ChEF 10xKm Ki: Average Ki
# T2 construct: Wild-type, full length CDK2 in complex with wildtype, full length CyclinA2: Carna Cat #04-103; purchased Carna 04-103
# Experimental: 500 nL of 50× compound in 100% DMSO is added to a 384-well low volume, white assay plate. 19.5 μL of 1.3×CDK2/CyclinA2 (Wild-type, full length CDK2 in complex with wildtype, full length CyclinA2: Carna Cat #04-103 diluted in assay buffer (50 mM Hepes, 0.01% Brij-35, 10 mM MgCl2, 0.5 mM EGTA, 1% Glycerol, and 1.2 mM DTT) is added to the plates on top of the compound and pre-incubated for 30 minutes at room temperature. Following the incubation, 5 μL of 5×Sox-chromophore (CSox) labeled peptide substrate (AQT0255, AssayQuant) & ATP diluted in assay buffer is added to the plate to initiate the reaction. The assay is incubated at room temperature for 45 min after initiation. The CSox peptide substrate is phosphorylated by CDK2/A2 upon ATP hydrolysis.
# as §2
# CDK1/CyclinB1 = molecular target: T3, CDK1/CyclinB1 (Homo sapiens, UniProt P06493); assay: CDK1/Cyclin B1 Mobility Shift Assay (Caliper, Table B); conditions: read-out: CDK1/CCNB1 Caliper Ki: Average Ki
# T3 construct: Wild-type, full length CDK1 in complex with wildtype, full length CyclinB1: Carna Cat #04-102; purchased Carna 04-102
# T3 sequence (P06493 whole entry): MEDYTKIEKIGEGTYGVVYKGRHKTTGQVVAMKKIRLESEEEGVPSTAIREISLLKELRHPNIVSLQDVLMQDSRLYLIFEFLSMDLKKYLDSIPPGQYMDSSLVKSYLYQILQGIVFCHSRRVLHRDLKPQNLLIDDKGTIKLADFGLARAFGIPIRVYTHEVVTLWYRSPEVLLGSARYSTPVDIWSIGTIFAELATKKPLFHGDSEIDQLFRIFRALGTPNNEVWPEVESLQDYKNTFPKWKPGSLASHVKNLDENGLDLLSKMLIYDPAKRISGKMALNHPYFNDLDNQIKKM
# T3 sequence (P14635 whole entry partner): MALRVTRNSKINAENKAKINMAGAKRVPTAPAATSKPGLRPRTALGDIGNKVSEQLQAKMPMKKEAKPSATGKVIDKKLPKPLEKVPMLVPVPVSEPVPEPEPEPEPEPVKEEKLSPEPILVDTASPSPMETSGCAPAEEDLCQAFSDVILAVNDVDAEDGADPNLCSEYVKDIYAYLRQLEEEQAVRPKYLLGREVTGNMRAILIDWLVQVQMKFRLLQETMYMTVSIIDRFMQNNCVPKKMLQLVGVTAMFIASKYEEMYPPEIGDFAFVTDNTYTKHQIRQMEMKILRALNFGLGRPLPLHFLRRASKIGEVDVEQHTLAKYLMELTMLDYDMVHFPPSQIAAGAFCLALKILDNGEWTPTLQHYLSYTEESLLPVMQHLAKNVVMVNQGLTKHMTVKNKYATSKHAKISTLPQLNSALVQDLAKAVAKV
# Experimental: 10 nL of 2000× compound in 100% DMSO is added to a 384-well polypropylene assay plate. 15 μL of 1.3×CDK1/B1 and 1.3× fluorescent substrate (Wild-type, full length CDK1 in complex with wildtype, full length CyclinB1: Carna Cat #04-102 and FL-Peptide 29: PerkinElmer Cat #760429) diluted in kinase buffer (50 mM Hepes, 0.01% Brij-35, 10 mM MgCl2, 1 mM EGTA, 0.05% BSA, and 2 mM DTT) is added to the plates on top of the compound, mixed, and pre-incubated for 30 minutes at room temperature. The fluorescently labeled peptide substrate is phosphorylated by CDK1/B1 upon ATP hydrolysis. Following the incubation, 5 μL of 4×ATP diluted in kinase buffer is added to the plate to initiate the reaction. Following the 30-minute incubation, the reaction is stopped by adding 75 μL of stopping buffer containing 0.5 M EDTA.
# as §1
SMILES,Ki (CDK9/CyclinT1 [1]),Ki (CDK9/CyclinT1 [2]),Ki (CDK2/CyclinA2),CDK2/CCNA2 ChEF 10xKm Ki: CDK2/A2 Selectivity over CDK9/T1 (CDK2/CyclinA2),Ki (CDK1/CyclinB1)
"NS(=O)(=O)c1ccc2cc1OCCCCCNC(=O)O[C@@H]1CC[C@@H](C1)c1cnc(nc1)N2 (stereo in doubt) [Compound 105, rel-(2S,5R)-7-oxo-6,14-dioxa-8,20,22,25-tetraazatetracyclo[19.2.2.1^{2,5}.1^{15,19}]heptacosa-1(23),15,17,19(26),21,24-hexaene-16-sulfonamide]",≥ 100 nM,–,–,–,–
"O=C1NCCOCCNS(=O)(=O)c2ccc(c(F)c2)Nc2cc([nH]n2)[C@H]2CC[C@H](C2)O1 [Compound 89, (1^1S,1^3R,Z)-4^2-Fluoro-2^1H-9,14-dioxa-5-thia-3,6,12-triaza-2(5,3)-pyrazola-4(1,4)-benzena-1(1,3)-cyclopentanacyclotetradecaphan-13-one 5,5-dioxide]",1 to 25 nM,≥ 100 nM,1 to 25 nM,A (A>10),1 to 25 nM
"O=C1NCCCCCNS(=O)(=O)c2ccc(c(F)c2)Nc2cc([nH]n2)[C@H]2CC[C@H](C2)O1 [Compound 90, (1^1S,1^3R,Z)-4^2-fluoro-2^1H-14-oxa-5-thia-3,6,12-triaza-2(5,3)-pyrazola-4(1,4)-benzena-1(1,3)-cyclopentanacyclotetradecaphan-13-one 5,5-dioxide]",25 to 100 nM,≥ 100 nM,1 to 25 nM,A (A>10),25 to 100 nM
"O=C1NCCCCCCNS(=O)(=O)c2ccc(c(F)c2)Nc2cc([nH]n2)[C@H]2CC[C@H](C2)O1 [Compound 91, (1^1S,1^3R,Z)-4^2-fluoro-2^1H-15-oxa-5-thia-3,6,13-triaza-2(5,3)-pyrazola-4(1,4)-benzena-1(1,3)-cyclopentanacyclopentadecaphan-14-one 5,5-dioxide]",25 to 100 nM,≥ 100 nM,< 1 nM,A (A>10),1 to 25 nM
O=C1NCCCCCCCNS(=O)(=O)c2ccc(c(F)c2)Nc2cc([nH]n2)[C@H]2CC[C@H](C2)O1 [Compound 92],25 to 100 nM,≥ 100 nM,< 1 nM,A (A>10),< 1 nM
"O=C1NCCCn2cc(cn2)S(=O)(=O)N2CCC(CC2)Nc2cc([nH]n2)[C@H]2CC[C@H](C2)O1 [Compound 95, (1^1S, 1^3R,2^4Z,6^4E)-2^1H,6^1H-12-oxa-5-thia-3,10-diaza-4(4,1)-piperidina-2(5,3),6(4,1)-dipyrazola-1(1,3)-cyclopentanacyclododecaphan-11-one 5,5-dioxide]",≥ 100 nM,≥ 100 nM,≥ 100 nM,C (C<5),≥ 100 nM
"O=C1NCCCCCn2cc(cn2)S(=O)(=O)N2CCC(CC2)Nc2cc([nH]n2)[C@H]2CC[C@H](C2)O1 [Compound 96, (1^1S,1^3R,2^4Z,6^4E)-2^1H,6^1H-14-oxa-5-thia-3,12-diaza-4(4,1)-piperidina-2(5,3),6(4,1)-dipyrazola-1(1,3)-cyclopentanacyclotetradecaphan-13-one 5,5-dioxide]",≥ 100 nM,25 to 100 nM,1 to 25 nM,A (A>10),≥ 100 nM
"O=C1NCCCCCCn2cc(cn2)S(=O)(=O)N2CCC(CC2)Nc2cc([nH]n2)[C@H]2CC[C@H](C2)O1 [Compound 97, (1^1S,1^3R,2^4Z,6^4E)-2^1H,6^1H-15-oxa-5-thia-3,13-diaza-4(4,1)-piperidina-2(5,3),6(4,1)-dipyrazola-1(1,3)-cyclopentanacyclopentadecaphan-14-one 5,5-dioxide]",≥ 100 nM,≥ 100 nM,< 1 nM,A (A>10),1 to 25 nM
"O=C1NCCCNS(=O)(=O)c2ccc(c(F)c2)Nc2cc([nH]n2)[C@H]2CC[C@H](C2)O1 [Compound 98, (1^1S, 1^3R,Z)-4^2-fluoro-2^1H-12-oxa-5-thia-3,6, 10-triaza-2(5,3)-pyrazola-4(1,4)-benzena-1(1,3)-cyclopentanacyclododecaphan-11-one 5,5-dioxide]",≥ 100 nM,25 to 100 nM,25 to 100 nM,B (5≤B<10),≥ 100 nM
"O=C1NCCCCNS(=O)(=O)c2ccc(c(F)c2)Nc2cc([nH]n2)[C@H]2CC[C@H](C2)O1 [Compound 99, (1^1S, 1^3R,Z)-4^2-fluoro-2^1H-13-oxa-5-thia-3,6,11-triaza-2(5,3)-pyrazola-4(1,4)-benzena-1(1,3)-cyclopentanacyclotridecaphan-12-one 5,5-dioxide]",≥ 100 nM,≥ 100 nM,< 1 nM,A (A>10),1 to 25 nM
"CN1CCNC(=O)O[C@@H]2CC[C@@H](C2)c2cc(n[nH]2)Nc2ccc(cc2F)S(=O)(=O)NCC1 [Compound 100, (1^1S, 1^3R,Z)-4^2-fluoro-9-methyl-2^1H-14-oxa-5-thia-3,6,9,12-tetraaza-2(5,3)-pyrazola-4(1,4)-benzena-1(1,3)-cyclopentanacyclotetradecaphan-13-one 5,5-dioxide]",≥ 100 nM,≥ 100 nM,1 to 25 nM,A (A>10),≥ 100 nM
"CC1(C)CCCNS(=O)(=O)c2ccc(c(F)c2)Nc2cc([nH]n2)[C@H]2CC[C@H](C2)OC(=O)N1 [Compound 101, (1^1S,1^3R,Z)-4^2-fluoro-10,10-dimethyl-2^1H-13-oxa-5-thia-3,6,11-triaza-2(5,3)-pyrazola-4(1,4)-benzena-1(1,3)-cyclopentanacyclotridecaphan-12-one 5,5-dioxide]",≥ 100 nM,25 to 100 nM,1 to 25 nM,A (A>10),≥ 100 nM
